Earlier results in patent US20020128313A1, “Method for improved pregnancy management and related composition” (priority 2000, published 2002).

Test system: sows
[1] = 5 mg in extended boar sperm (Gil et al., 1998)

## CCCCC[C@H](O)/C=C/[C@@H]1[C@@H](C/C=C\CCCC(=O)O)[C@@H](O)C[C@H]1O [PGF2α, Prostaglandin F2α]
[1]
  Likelihood of a sow to become pregnant: increased the likelihood of a sow to become pregnant
  Number of piglets born alive: increased number of piglets born alive
Pena et al., 1998
  Effect on seasonal infertility in sows: helped alleviate the effect of seasonal infertility
